The target of this assay is T1, human GPR119 (hGPR119) (Homo sapiens, UniProt Q8TDV5).
T1 construct: expressed in transfected cells
T1 sequence (Q8TDV5 1-335): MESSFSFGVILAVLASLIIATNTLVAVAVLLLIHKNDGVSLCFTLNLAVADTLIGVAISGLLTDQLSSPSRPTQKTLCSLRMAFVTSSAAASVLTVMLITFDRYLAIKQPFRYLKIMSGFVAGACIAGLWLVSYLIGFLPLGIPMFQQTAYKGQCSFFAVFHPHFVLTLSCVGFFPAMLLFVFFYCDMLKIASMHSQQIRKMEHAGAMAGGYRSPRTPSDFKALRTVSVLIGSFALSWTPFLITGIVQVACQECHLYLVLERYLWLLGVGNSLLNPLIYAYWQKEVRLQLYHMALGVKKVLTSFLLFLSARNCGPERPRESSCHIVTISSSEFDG
Description: cAMP accumulation assay (Cisbio cAMP Gs dynamic HTRF kit) in CHO-K1 cells stably expressing human GPR119. The settings on record: 4-parameter fit; for Emax: 1 h, % activity normalized to Max and Min controls; for EC50: 60 minutes at 37° C. In kind it is cell-based. A digest of the protocol: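 CHO-K1 cells stably expressing hGPR119, used as assay-ready frozen stocks at ~10,000 cells/well, exposed to compound dose-response in stimulation buffer with Tween 80 for 60 min at 37° C. cAMP read by HTRF (665/620 nm ratio), normalised to Max/Min controls; EC50 and Max activity from 4-parameter fit.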
(Cyclic AMP is a second messenger, typically raised through Gs and lowered through Gi signalling.)

In patent US20240217983A1, “GPR119 AGONISTS” (Kallyope, Inc., priority 2021, published 2024) one finds Emax and EC50 data, which are given here for eight compounds.

The term Emax denotes the size of the effect at its maximum, as opposed to the concentration needed. A word on the EC50: it is the concentration needed to bring the measured effect to its halfway point. Higher therefore signals lower potency in that assay.

On to `O=C(Cc1ccc(OCCCC2CCN(c3ncc(Cl)cn3)CC2)cc1F)N1CC2CC(C1)N2C[C@H](O)[C@@H](O)[C@H](O)[C@H](O)CO` [Example 49, 2-(4-(3-(1-(5-chloropyrimidin-2-yl)piperidin-4-yl)propoxy)-2-fluorophenyl)-1-(6-((2S,3R,4R,5R)-2,3,4,5,6-pentahydroxyhexyl)-3,6-diazabicyclo[3.1.1]heptan-3-yl)ethan-1-one], for which the maximal effect (Emax) fell in the range of 100 to 130% and the concentration giving a half-maximal response (EC50) is no more than 100 nM.

Compound `O=C(Cc1ccc(OCCCC2CCN(c3ncc(Cl)cn3)CC2)cc1F)N1CCCN(C[C@H](O)[C@H](O)[C@H](O)CO)CC1` [Example 50, 2-(4-(3-(1-(5-chloropyrimidin-2-yl)piperidin-4-yl)propoxy)-2-fluorophenyl)-1-(4-((2S,3S,4R)-2,3,4,5-tetrahydroxypentyl)-1,4-diazepan-1-yl)ethan-1-one] came in with a maximal effect (Emax) of 100 to 130% and a concentration giving a half-maximal response (EC50) of no more than 100 nM.

`O=C(Cc1ccc(OCCCC2CCN(c3ncc(Cl)cn3)CC2)cc1F)N1CCCN(C[C@H](O)[C@@H](O)[C@H](O)[C@H](O)CO)CC1` [Example 51, 2-(4-(3-(1-(5-chloropyrimidin-2-yl)piperidin-4-yl)propoxy)-2-fluorophenyl)-1-(4-((2S,3R,4R,5R)-2,3,4,5,6-pentahydroxyhexyl)-1,4-diazepan-1-yl)ethan-1-one] showed a maximal response (Emax) of 100 to 130% and an EC50 of no more than 100 nM.

Turning to `O=C(Cc1ccc(OCCCC2CCN(c3ncc(Cl)cn3)CC2)cc1F)N1CC2CCC1CN2C[C@H](O)[C@H](O)[C@H](O)CO` (stereo partly drawn) [Example 52, 2-(4-(3-(1-(5-chloropyrimidin-2-yl)piperidin-4-yl)propoxy)-2-fluorophenyl)-1-(5-((2S,3S,4R)-2,3,4,5-tetrahydroxypentyl)-2,5-diazabicyclo[2.2.2]octan-2-yl)ethan-1-one], the maximal response (Emax) is no less than 130% and the EC50 is no more than 100 nM.

Take `O=C(Cc1ccc(OCCCC2CCN(c3ncc(Cl)cn3)CC2)cc1F)N1CC2CCC1CN2C[C@H](O)[C@@H](O)[C@H](O)[C@H](O)CO` (stereo partly drawn) [Example 53, 2-(4-(3-(1-(5-chloropyrimidin-2-yl)piperidin-4-yl)propoxy)-2-fluorophenyl)-1-(5-((2S,3R,4R,5R)-2,3,4,5,6-pentahydroxyhexyl)-2,5-diazabicyclo[2.2.2]octan-2-yl)ethan-1-one]: the Emax lay in the range of 100 to 130% and the concentration giving a half-maximal response (EC50) was no more than 100 nM.

Turning to `O=C(Cc1ccc(OCCCC2CCN(c3ncc(Cl)cn3)CC2)cc1F)N1C[C@@H]2C[C@H]1CN2C[C@H](O)[C@H](O)[C@H](O)CO` [Example 54, 2-(4-(3-(1-(5-chloropyrimidin-2-yl)piperidin-4-yl)propoxy)-2-fluorophenyl)-1-((1S,4S)-5-((2S,3S,4R)-2,3,4,5-tetrahydroxypentyl)-2,5-diazabicyclo[2.2.1]heptan-2-yl)ethan-1-one], the Emax was 100 to 130% and the concentration for a half-maximal effect (EC50) is no more than 100 nM.

Turning to `O=C(Cc1ccc(OCCCC2CCN(c3ncc(Cl)cn3)CC2)cc1F)N1C[C@@H]2C[C@H]1CN2C[C@H](O)[C@@H](O)[C@H](O)[C@H](O)CO` [Example 55, 2-(4-(3-(1-(5-chloropyrimidin-2-yl)piperidin-4-yl)propoxy)-2-fluorophenyl)-1-((1S,4S)-5-((2S,3R,4R,5R)-2,3,4,5,6-pentahydroxyhexyl)-2,5-diazabicyclo[2.2.1]heptan-2-yl)ethan-1-one], the Emax was in the range of 100 to 130% and the half-maximal effective concentration (EC50) is no more than 100 nM.

For the compound `O=C(Cc1ccc(OCCCC2CCN(c3ncc(Cl)cn3)CC2)cc1F)N1C2CC1CN(C[C@H](O)[C@H](O)[C@H](O)CO)C2` [Example 56, 2-(4-(3-(1-(5-chloropyrimidin-2-yl)piperidin-4-yl)propoxy)-2-fluorophenyl)-1-(3-((2S,3S,4R)-2,3,4,5-tetrahydroxypentyl)-3,6-diazabicyclo[3.1.1]heptan-6-yl)ethan-1-one], the Emax lay in the range of 100 to 130% and the EC50 is no more than 100 nM.
